The assay deals with T1, h5-HT4b (Homo sapiens, UniProt Q13639).
T1 construct: expressed in transfected cells; host or cells: HEK 293 (clone 9), membrane preparation
The experiment in a line: 5HT4 antagonism: [3H]GR113808 binding to membranes of h5-HT4b-HEK 293 clone 9 cells. The note with it: displacement of [3H]GR113808 0.1 nM, h5-HT4b-HEK 293 membranes, 30 min at 25° C.; read-out: pIC50 (5HT4 antagonistic data) (converted). In short, it runs like this: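 Membranes from h5-HT4b-HEK 293 clone 9 cells were incubated with [3H]GR113808 (0.1 nM as added) in 50 mM HEPES-NaOH pH 7.4 for 30 min at 25 °C. Non-specific binding was defined with a 5-HT4 agonist. Bound radioligand was separated by filtration over PEI-soaked GF/B filters.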
For orientation: Loss of bound radioactivity is the signal in a displacement assay; it reports binding, not function.

T1 sequence (Q13639 whole entry): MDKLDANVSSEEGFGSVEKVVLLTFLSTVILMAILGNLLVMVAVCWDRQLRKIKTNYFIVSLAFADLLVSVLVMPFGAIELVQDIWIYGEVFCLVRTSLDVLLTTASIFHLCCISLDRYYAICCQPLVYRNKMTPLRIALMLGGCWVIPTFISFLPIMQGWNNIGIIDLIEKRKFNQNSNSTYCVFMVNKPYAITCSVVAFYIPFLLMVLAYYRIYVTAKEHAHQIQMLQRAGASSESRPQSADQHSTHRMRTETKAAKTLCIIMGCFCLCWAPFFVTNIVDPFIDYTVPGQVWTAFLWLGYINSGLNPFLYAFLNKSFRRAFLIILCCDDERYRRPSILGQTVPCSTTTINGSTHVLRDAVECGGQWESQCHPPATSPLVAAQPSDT

Consider `COCc1cc2c(c(C(=O)NC[C@@H]3CCN(CCCO)C[C@H]3O)c1)OCCCO2` [compound 122], for which the IC50 is 32.4 nM.

Turning to `CCCCN1CC[C@@H](CNC(=O)c2cc(C)cc3c2OCCCO3)[C@H](OC)C1` [compound 222], the IC50 was 1.32 nM.

For `CNc1cc2c(c(C(=O)NC[C@@H]3CCN(CCCC#N)C[C@H]3O)c1)OCCCO2` [compound 38], the IC50 is 288 nM.

For the molecule `COCCN1CC[C@@H](CNC(=O)c2cc(N)c(Cl)c3c2OCCCO3)[C@H](O)C1` [compound 79], the IC50 is 39.8 nM.

As to `COCCCCN1CC[C@H](CNC(=O)c2cc(C)cc3c2OCCCO3)[C@H](O)C1` [compound 243], the IC50 was 9.33 nM.

Regarding `CS(=O)(=O)NCCN1CC[C@@H](CNC(=O)c2cc(N)cc3c2OCCO3)[C@H](O)C1` [compound 132], the IC50 is 91.2 nM.

With `CNCCCCN1CC[C@@H](CNC(=O)c2cc(C)cc3c2OCCCO3)[C@H](O)C1` [compound 173], the IC50 was 3.02 nM.

As for `Nc1cc(C(=O)NC[C@@H]2CCN(CCC3OCCO3)C[C@H]2O)c2c(c1Cl)OCCO2` [compound 14], the IC50 was 16.6 nM.

In the case of `CNCCCCN1CC[C@@H](CNC(=O)c2cc(N)cc3c2OCCCO3)[C@H](O)C1` [compound 106], the IC50 was 363 nM.

For `CO[C@@H]1CN(CCCO)CC[C@H]1CNC(=O)c1cc(C#N)cc2c1OCCCO2` [compound 207], the IC50 was 37.2 nM.

As to `CCCCN1CC[C@@H](CNC(=O)c2cc(N)cc3c2OCCCO3)[C@H](O)C1` [compound 110], the IC50 was 19.1 nM.

Take `CC(C)OCCCN1CC[C@H](CNC(=O)c2cc(C#N)cc3c2OCCCO3)[C@@H](O)C1` [compound 219]: the IC50 is 1.86 nM.

Take `CNc1cc(C(=O)NC[C@@H]2CCNC[C@H]2O)c2c(c1Cl)OCCO2` [compound 105]: the IC50 was 437 nM.

Take `Nc1cc2c(c(C(=O)NC[C@@H]3CCN(Cc4ccc(F)cc4)C[C@H]3O)c1)OCCCO2` [compound 55]: the IC50 is 64.6 nM.

Regarding `CC(C)Nc1cc2c(c(C(=O)NC[C@@H]3CCNC[C@H]3O)c1)OCCCO2` [compound 167], the IC50 was 2400 nM.

Take `CNc1cc2c(c(C(=O)NC[C@@H]3CCN(CCCO)C[C@H]3O)c1)OCCO2` [compound 12]: the IC50 was 41.7 nM.

For the molecule `CCCNc1cc2c(c(C(=O)NC[C@@H]3CCNC[C@H]3O)c1)OCCCO2` [compound 149], the IC50 is 3550 nM.

With `COCCCCN1CC[C@@H](CNC(=O)c2cc(C)cc3c2OCCCO3)[C@H](O)C1` [compound 234], the IC50 is 0.49 nM.

Consider `Cc1cc2c(c(C(=O)NC[C@@H]3CCN(CCCCNc4ncccn4)C[C@H]3O)c1)OCCCO2` [compound 230], for which the IC50 was 0.501 nM.

With `COCCN1CC[C@@H](CNC(=O)c2cc(N)c(Cl)c3c2OCCO3)[C@H](O)C1` [compound 42], the IC50 is 18.6 nM.

`Nc1cc2c(c(C(=O)NC[C@@H]3CCN(CCOCCO)C[C@H]3O)c1)OCCO2` [compound 86]: the IC50 was 132 nM.

In the case of `COCCCN1CC[C@@H](CNC(=O)c2cc(N)cc3c2OCCCO3)[C@H](O)C1` [compound 111], the IC50 is 20 nM.

As for `Nc1cc2c(c(C(=O)NC[C@@H]3CCN(CCCC(=O)O)C[C@H]3O)c1)OCCO2` [compound 18], the IC50 is 195 nM.

In the case of `Nc1cc2c(c(C(=O)NC[C@@H]3CCN(CCOCCO)C[C@H]3O)c1)OCCCO2` [compound 69], the IC50 is 490 nM.

As to `CNc1cc2c(c(C(=O)NC[C@@H]3CCN(CCCC(C)=O)C[C@H]3O)c1)OCCCO2` [compound 77], the IC50 is 69.2 nM.

As to `COCCCN1CC[C@@H](CNC(=O)c2cc(N)c(Cl)c3c2OCCCO3)[C@H](O)C1` [compound 47], the IC50 is 31.6 nM.

In the case of `Cc1cc2c(c(C(=O)NC[C@@H]3CCN(CCCS(C)(=O)=O)C[C@H]3O)c1)OCCCO2` [compound 205], the IC50 was 2.75 nM.

As to `CCCCNc1cc2c(c(C(=O)NC[C@@H]3CCN(CCCC#N)C[C@H]3O)c1)OCCCO2` [compound 150], the IC50 is 120 nM.

As for `CNc1cc2c(c(C(=O)NC[C@@H]3CCN(CCCOC(C)C)C[C@H]3O)c1)OCCO2` [compound 36], the IC50 is 21.4 nM.

The values are drawn from US7638535B2, “4-(aminomethyl)-piperidine benzamides as 5HT4-antagonists” (Janssen Pharmaceutica N.V., priority 2003, dated 2009).
